# Results: patent US5156955A, “Nucleoside oxidase and assay method utilizing same” (priority 1988, dated 1992)
# Where two headings read alike, the source gives them in different places.
# Experiments:
# Format in all cases: biochemical, Pseudomonas maltophilia LB-86
# nucleoside oxidase YT-1 [1] = assay: Substrate specificity test (nucleoside oxidase activity, oxygen consumption); settings: relative to activity on inosine taken as 100
# Protocol: The consumption of 1 μM of oxygen per minute is taken as 1 unit (U).
# nucleoside oxidase YT-1 [2] = test system: nucleoside oxidase YT-1
# Protocol: A solution of the present enzyme (0.02 U) was caused to act on inosine at pH 6.0 and 25° C. for 10 minutes in the presence of various inhibitors, and the enzymatic activity was thereafter measured.
# nucleoside oxidase YT-1 [3] = assay: Influence of metal ions on the activity; settings: enzyme 0.02 U on inosine, pH 6.0, 25° C., 10 minutes
# Protocol: A solution of the enzyme (0.02 U) was caused to act on inosine at pH 6.0 and 25° C. for 10 minutes in the presence of various metal ions, and the activity of the enzyme was thereafter measured to check the influence of the metal ions on the activity.
# nucleoside oxidase YT-1 [4] = assay: Enzymatic activity test I: oxidation reaction products and stoichiometry; settings: peak separated off by HPLC and reacted with enzyme
# Protocol: During a reaction period of 0 to 800 minutes, the reaction muxture was partly collected at suitable time intervals and analyzed by high performance liquid chromatography (HPLC) with a column of Fine SIL C18 (product of Japan Spectroscopic Co., Ltd.) using as a solvent 50 mM phosphate buffer (pH 3.0)/methanol=95/5 at a flow rate of 1.5 ml/min. Absorption was detected at 260 nm.
# The amount of oxygen consumption was determined by an oxygen electrode, the amount of P-2 produced from the peak area of HPLC, and the amount of hydrogen peroxide by the phenol-4-aminoantipyrine peroxidase method and the ferrithiocyanide method (Ronald Thurman et al., Eur. J. Biochem., 25, 420-430 (1972)).
# nucleoside oxidase YT-1 [5] = assay: Specificity test on laccase substrate (laccase-like activity in presence of inosine); settings: 1 mM laccase substrate, 7 mM inosine, one unit enzyme, 5 minutes
# Protocol: The present enzyme was tested for the substrate specificity of its laccase-like activity in the presence of 7 mM inosine in the following manner. One unit of the present enzyme was added to a specimen containing 7 mM of inosine and 1 mM of the laccase substrate shown in Table 5, and the mixture was allowed to stand for 5 minutes. The absorption spectrum of the specimen was obtained before and after the addition of the enzyme.
# [6] = inhibitor 1 mM, enzyme 0.02 U on inosine, pH 6.0, 25° C., 10 minutes
# [7] = inhibitor 10 mM, enzyme 0.02 U on inosine, pH 6.0, 25° C., 10 minutes
compound,measurement,setting,value
O=c1[nH]c(=O)c2ncn([C@@H]3O[C@H](CO)[C@@H](O)[C@H]3O)c2[nH]1 [Xanthosine],Relative activity,nucleoside oxidase YT-1 [1]; substrate 10 mM,125%
"Nc1ncnc2c1ncn2[C@@H]1O[C@H](COP(=O)(O)O)[C@@H](O)[C@H]1O [5'-AMP, 5'-adenosine monophosphate]",Relative activity,nucleoside oxidase YT-1 [1]; substrate 10 mM,0%
O=C(O)CI [Iodoacetic acid],Relative activity,"nucleoside oxidase YT-1 [2]; nucleoside oxidase yt-1, pH 6, 10 min, 1000 µM",100%
O=c1cc[nH]c(=O)[nH]1 [Uracil],Relative activity,nucleoside oxidase YT-1 [1]; substrate 20 mM,0%
Nc1ncnc2c1ncn2[C@@H]1O[C@H](CO)[C@@H](O)[C@H]1O [Adenosine],Relative activity,nucleoside oxidase YT-1 [1]; substrate 10 mM,97.3%
Nc1ncnc2c1ncn2[C@H]1C[C@H](O)[C@@H](CO)O1 [Deoxyadenosine],Relative activity,nucleoside oxidase YT-1 [1]; substrate 10 mM,81.4%
(NH4)6 Mo7 O24,Relative activity,nucleoside oxidase YT-1 [3]; metal salt 0.1 mM,106%
same,Relative activity,nucleoside oxidase YT-1 [3]; metal salt 1.0 mM,102%
O=S(=O)([O-])[O-].[Zn+2] [ZnSO4],Relative activity,nucleoside oxidase YT-1 [3]; metal salt 0.1 mM,106%
same,Relative activity,nucleoside oxidase YT-1 [3]; metal salt 1.0 mM,98.9%
"CCN(CC)C(=S)S [Sodium N,N'-Diethylditiocarbamate, Sodium N,N'-Diethylditio-carbamate]",Relative activity,nucleoside oxidase YT-1 [2]; [6],271%
"O=C(O)[C@H]1O[C@@H](n2cnc3c(=O)[nH]cnc32)[C@H](O)[C@@H]1O [P-2, inosine-5'-carboxylic acid]",change on reaction with the enzyme sample (HPLC),nucleoside oxidase YT-1 [4],exhibited no change
Nc1nc2c(ncn2[C@@H]2O[C@H](CO)[C@@H](O)[C@H]2O)c(=O)[nH]1 [Guanosine],Relative activity,nucleoside oxidase YT-1 [1]; substrate 10 mM,121%
Nc1cc[nH]c(=O)n1 [Cytosine],Relative activity,nucleoside oxidase YT-1 [1]; substrate 20 mM,0%
CC(=O)[O-].CC(=O)[O-].[Pb+2] [Pb(CH3 COO)2],Relative activity,nucleoside oxidase YT-1 [2]; [6],81.3%
O=S(=O)([O-])[O-].[Fe+2] [FeSO4],Relative activity,nucleoside oxidase YT-1 [3]; metal salt 0.1 mM,93.4%
Nc1nc2nc[nH]c2c(=O)[nH]1 [Guanine],Relative activity,nucleoside oxidase YT-1 [1]; substrate 0.4 mM,0%
NO [Hydroxylamine],Relative activity,nucleoside oxidase YT-1 [2]; [6],87.8%
same,Relative activity,nucleoside oxidase YT-1 [2]; [7],63.2%
O=c1ccn([C@@H]2O[C@H](CO)[C@@H](O)[C@H]2O)c(=O)[nH]1 [Uridine],Relative activity,nucleoside oxidase YT-1 [1]; substrate 10 mM,92.8%
O=P(O)(O)OC[C@H]1OC(O)[C@H](O)[C@@H]1O (stereo partly drawn) [D-ribose-5-phosphoric acid],Relative activity,nucleoside oxidase YT-1 [1]; substrate 20 mM,0%
O=C1C=CC(=O)C=C1 [p-Quinone],Change in absorption spectrum due to reaction,nucleoside oxidase YT-1 [5],No change
[N-]=[N+]=[N-] [Sodium azide],Relative activity,nucleoside oxidase YT-1 [2]; [6],81.5%
same,Relative activity,nucleoside oxidase YT-1 [2]; [7],45.6%
same,Effect of inhibitor (enzyme inhibited),nucleoside oxidase YT-1 [2]; statement in words,inhibited
O=S(=O)([O-])[O-].[Mg+2] [MgSO4],Relative activity,nucleoside oxidase YT-1 [3]; metal salt 0.1 mM,102%
c1cnc2c(c1)ccc1cccnc12 [o-Phenanthroline],Relative activity,nucleoside oxidase YT-1 [2]; [6],94.7%
Nc1ccc(O)cc1 [p-Aminophenol],Change in absorption spectrum due to reaction,nucleoside oxidase YT-1 [5],New peak at 360 nm
Nc1ncnc2c1ncn2[C@@H]1O[C@H](COP(=O)(O)OP(=O)(O)OP(=O)(O)O)[C@@H](O)[C@H]1O [5'-ATP],Relative activity,nucleoside oxidase YT-1 [1]; substrate 10 mM,0%
Oc1cccc(O)c1O [Pyrogallol],Change in absorption spectrum due to reaction,nucleoside oxidase YT-1 [5],New peak at 370 nm
O=S(=O)(F)Cc1ccccc1 [Phenylmethylsulfonyl fluoride],Relative activity,nucleoside oxidase YT-1 [2]; [6],95.3%
Mercury p-chorobenzoate,Relative activity,nucleoside oxidase YT-1 [2]; [6],98.9%
Nc1ncnc2nc[nH]c12 [Adenine],Relative activity,nucleoside oxidase YT-1 [1]; substrate 10 mM,0%
